The record followed here is ChEMBL document CHEMBL1149470, “Identification and structure-based optimization of novel dihydropyrones as potent HCV RNA polymerase inhibitors” (Bioorg Med Chem Lett, 2006).

A word on the IC50: it is the concentration that inhibits the measured activity by half. A higher IC50 goes with weaker potency.

For one assay, the system named is Hepatitis C virus. The experiment in a line: Antiviral activity against HCV 1b in Huh7 cell line upto 10 uM by replicon assay. To be noted: Hepacivirus hominis; genotype 1b; Huh-7. Format: functional, cell-based. In general terms: Replicon systems follow genome replication, usually without infectious particles.
Assay [1] has as its target RNA-directed RNA polymerase (Hepacivirus hominis, UniProt O39930). The experiment in a line: Inhibitory activity against HCV 1b BK NS5B deltaC21 RNA polymerase. More on the design: species or system Hepatitis C virus subtype 1b.

Activity calls are given as the source filed them. No cut-off for these calls is given here.

RNA-directed RNA polymerase, sequence (O39930 whole entry): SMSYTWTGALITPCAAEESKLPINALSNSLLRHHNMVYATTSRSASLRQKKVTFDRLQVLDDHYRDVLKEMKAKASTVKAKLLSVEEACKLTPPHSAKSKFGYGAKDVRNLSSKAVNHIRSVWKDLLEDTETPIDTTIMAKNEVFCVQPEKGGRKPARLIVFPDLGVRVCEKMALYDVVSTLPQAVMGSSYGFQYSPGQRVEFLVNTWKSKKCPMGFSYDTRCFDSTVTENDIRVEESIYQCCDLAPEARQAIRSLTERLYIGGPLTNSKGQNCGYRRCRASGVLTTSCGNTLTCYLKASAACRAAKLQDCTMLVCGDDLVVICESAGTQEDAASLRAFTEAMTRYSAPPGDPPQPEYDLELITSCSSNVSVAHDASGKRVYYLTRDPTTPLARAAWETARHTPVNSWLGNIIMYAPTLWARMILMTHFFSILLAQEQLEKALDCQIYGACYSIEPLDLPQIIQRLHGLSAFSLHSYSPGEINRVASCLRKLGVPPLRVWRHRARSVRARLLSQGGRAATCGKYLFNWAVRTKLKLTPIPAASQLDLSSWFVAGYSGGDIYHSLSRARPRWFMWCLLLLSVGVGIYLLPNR

For `CCc1cccc(CCC2(C3CCCC3)CC(=O)CC(=O)O2)c1` (configuration not stated), in the assay on Hepatitis C virus, the result was inactive. For the same compound, the 50% inhibitory concentration (IC50) in assay [1] came to 3600 nM.

`O=C1CC(=O)OC(CCc2ccccc2)(C2CCCC2)C1` (configuration not stated): the result in the assay on Hepatitis C virus was inactive. Also, the IC50 in assay [1] is 48000 nM.

As to `COc1ccc(CCC2(C3CCCC3)CC(=O)C(Sc3nnnn3C)=C(O)O2)cc1Cl` (configuration not stated), in the assay on Hepatitis C virus, the result was inactive. Besides, in assay [1], the IC50 came to 280 nM.

Take `CCCC1(CCc2ccc(OC)cc2)CC(=O)CC(=O)O1` (configuration not stated): the result with Hepatitis C virus was inactive. The half-maximal inhibitory concentration (IC50) in assay [1] is more than 50000 nM.

Consider `Cc1cccc(CCC2(C3CCCC3)CC(=O)CC(=O)O2)c1` (configuration not stated), for which the result in the assay with Hepatitis C virus was inactive. This compound also had a half-maximal inhibitory concentration (IC50) in assay [1] of 23000 nM.

As to `CCOc1ccc(CCC2(C3CCCC3)CC(=O)CC(=O)O2)cc1F` (configuration not stated), the outcome in the assay on Hepatitis C virus was inactive. Further, the midpoint of inhibition in assay [1], the IC50, lay at 790 nM.

With `O=C1CC(=O)OC(CCc2ccc(O)cc2)(C2CCC2)C1` (configuration not stated), the result in the assay on Hepatitis C virus was inactive. In assay [1], this compound displayed an IC50 of 93000 nM.

Take `COc1ccc(CCC2(C3CCCC3)CC(=O)C(Sc3ccccc3)=C(O)O2)cc1Cl` (configuration not stated): the result with Hepatitis C virus was inactive. The same compound registered an IC50 in assay [1] of 560 nM.

With `COc1ccc(CCC2(C3CCCC3)CC(=O)C(Sc3ccc(O)cc3)=C(O)O2)cc1Cl` (configuration not stated), the outcome with Hepatitis C virus was inactive. In assay [1], half-maximal inhibition (IC50) required 130 nM.

Take `Cc1cc(SC2=C(O)OC(CCc3ccc(O)cc3)(C3CCCC3)CC2=O)c(C(C)(C)C)cc1N` (configuration not stated): the outcome in the assay with Hepatitis C virus was inactive. In assay [1], this compound gave an IC50 of 930 nM.

Take `CC1(CCc2ccc(O)cc2)CC(=O)CC(=O)O1` (configuration not stated): in the assay on Hepatitis C virus, the outcome was inactive. The compound also returned a half-inhibitory concentration (IC50) in assay [1] of more than 100000 nM.

For `CC(C)c1ccc(CCC2(C3CCCC3)CC(=O)CC(=O)O2)cc1` (configuration not stated), the result in the assay on Hepatitis C virus was inactive. The IC50 in assay [1] is 4300 nM.

For the compound `CC(C)Oc1ccc(CCC2(C3CCCC3)CC(=O)CC(=O)O2)cc1F` (configuration not stated), the outcome in the assay on Hepatitis C virus was inactive.

For `COc1ccc(CCC2(C3CCCC3)CC(=O)CC(=O)O2)cc1F` (configuration not stated), the result in the assay with Hepatitis C virus was inactive. In assay [1], the IC50 was 890 nM.

Take `CC(C)Oc1ccc(CCC2(C3CCCC3)CC(=O)CC(=O)O2)cc1` (configuration not stated): the outcome with Hepatitis C virus was inactive. For the same compound, the concentration for half-maximal inhibition (IC50) in assay [1] amounted to 1700 nM.

For `O=C1CC(=O)OC(CCc2ccc(O)cc2)(C2CCCC2)C1` (configuration not stated), the outcome with Hepatitis C virus was inactive. Besides, the 50% inhibitory concentration (IC50) in assay [1] stood at 8200 nM.

As to `CC(C)c1cccc(CCC2(C3CCCC3)CC(=O)CC(=O)O2)c1` (configuration not stated), the result in the assay on Hepatitis C virus was inactive. The compound also yielded an IC50 in assay [1] of 1800 nM.

For `O=C1CC(=O)OC(CCc2ccc(O)cc2)(C2CCCCC2)C1` (configuration not stated), the outcome with Hepatitis C virus was inactive. Besides, it took 52000 nM to reach half-maximal inhibition in assay [1] (IC50).

In the case of `COc1ccc(CCC2(C3CCCC3)CC(=O)C(Sc3nccn3C)=C(O)O2)cc1Cl` (configuration not stated), the result in the assay on Hepatitis C virus was inactive. The same compound gave an IC50 in assay [1] of 140 nM.

On to `O=C1CC(=O)OC(CCc2cccc(Cl)c2)(C2CCCC2)C1` (configuration not stated), for which the outcome in the assay on Hepatitis C virus was inactive. Further, the midpoint of inhibition in assay [1], the IC50, lay at 5000 nM.

Turning to `COc1ccc(CCC2(C3CCCC3)CC(=O)CC(=O)O2)cc1` (configuration not stated), the result in the assay on Hepatitis C virus was inactive. In addition, the IC50 in assay [1] was determined as 9700 nM.

In the case of `CCOc1ccc(CCC2(C3CCCC3)CC(=O)CC(=O)O2)cc1` (configuration not stated), the outcome in the assay with Hepatitis C virus was inactive. The compound also showed an IC50 in assay [1] of 2900 nM.

Turning to `COc1ccc(CCC2(C3CCCC3)CC(=O)C(Sc3nncn3C)=C(O)O2)cc1Cl` (configuration not stated), the outcome with Hepatitis C virus was inactive. In assay [1], half-maximal inhibition (IC50) was put at 38 nM.

For `COc1ccc(CCC2(C3CCCC3)CC(=O)CC(=O)O2)cc1Cl` (configuration not stated), in the assay on Hepatitis C virus, the result was inactive. The IC50 in assay [1] is 1000 nM.
